Test results: ChEMBL document CHEMBL3992555, “Design, synthesis and preliminary biological evaluation of indole-3-carboxylic acid-based skeleton of Bcl-2/Mcl-1 dual inhibitors” (Bioorg Med Chem, 2017)

Legend:
[1] = molecular target: Apoptosis regulator Bcl-2 (Homo sapiens, UniProt P10415); assay: Inhibition of N-terminal FAM-labeled Bid-BH3 peptide binding to Bcl2 (unknown origin) preincubated for 30 mins followed by N-terminal FAM-labeled Bid-BH3 peptide addition measured after 20 mins by fluorescence polarization assay
[2] = molecular target: Induced myeloid leukemia cell differentiation protein Mcl-1 (Homo sapiens, UniProt Q07820); assay: Inhibition of N-terminal FAM-labeled Bid-BH3 peptide binding to MCL1 (unknown origin) preincubated for 30 mins followed by N-terminal FAM-labeled Bid-BH3 peptide addition measured after 20 mins by fluorescence polarization assay
[3] = test system: MDA-MB-231; assay: Antiproliferative activity against human MDA-MB-231 cells after 48 hrs by MTT assay; type: functional, cell-based; details: MDA-MB-231, 48 h
[4] = molecular target: Bcl-2-like protein 1 (Homo sapiens, UniProt Q07817); assay: Inhibition of N-terminal FAM-labeled Bid-BH3 peptide binding to Bcl-XL (unknown origin) preincubated for 30 mins followed by N-terminal FAM-labeled Bid-BH3 peptide addition measured after 20 mins by fluorescence polarization assay
[5] = test system: K562; assay: Antiproliferative activity against human K562 cells after 48 hrs by MTT assay; type: functional, cell-based; details: K562, 48 h
[6] = test system: PC-3; assay: Antiproliferative activity against human PC3 cells after 48 hrs by MTT assay; type: functional, cell-based; details: PC-3, 48 h

Chain of Induced myeloid leukemia cell differentiation protein Mcl-1 (Q07820 whole entry): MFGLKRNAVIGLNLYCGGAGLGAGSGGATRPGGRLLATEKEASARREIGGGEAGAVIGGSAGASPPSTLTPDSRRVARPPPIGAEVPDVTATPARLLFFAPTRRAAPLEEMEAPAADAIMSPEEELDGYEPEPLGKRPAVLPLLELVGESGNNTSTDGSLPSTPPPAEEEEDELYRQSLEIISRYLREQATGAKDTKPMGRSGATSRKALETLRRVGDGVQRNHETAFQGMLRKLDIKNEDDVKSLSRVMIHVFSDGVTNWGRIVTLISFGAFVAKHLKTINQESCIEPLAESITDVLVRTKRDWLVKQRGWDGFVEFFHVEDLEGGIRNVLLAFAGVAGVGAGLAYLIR
Chain of Apoptosis regulator Bcl-2 (P10415 whole entry): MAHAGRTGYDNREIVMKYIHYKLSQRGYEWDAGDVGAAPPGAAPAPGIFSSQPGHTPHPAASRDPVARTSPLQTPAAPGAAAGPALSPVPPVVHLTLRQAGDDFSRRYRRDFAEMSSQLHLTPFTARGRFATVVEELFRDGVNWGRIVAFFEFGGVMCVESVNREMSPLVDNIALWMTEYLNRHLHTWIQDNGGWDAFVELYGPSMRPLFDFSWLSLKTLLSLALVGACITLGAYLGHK
Chain of Bcl-2-like protein 1 (Q07817 whole entry): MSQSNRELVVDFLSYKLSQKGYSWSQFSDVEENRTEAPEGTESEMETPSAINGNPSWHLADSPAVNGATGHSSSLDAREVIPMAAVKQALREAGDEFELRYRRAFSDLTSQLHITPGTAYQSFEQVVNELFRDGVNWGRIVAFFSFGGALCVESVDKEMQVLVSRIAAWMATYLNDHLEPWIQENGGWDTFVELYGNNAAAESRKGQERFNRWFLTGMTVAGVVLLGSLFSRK

| Compound | Ki [1] [µM] | other results |
| --- | --- | --- |
| O=C(N[C@@H](Cc1ccccc1)C(=O)NS(=O)(=O)c1ccccc1)c1cn(Cc2ccc(-c3ccc(Cl)cc3)cc2)c2ccccc12 | 0.74 | Ki [2]: 490 nM; IC50 [3]: 29.6 µM; Ki [4]: 2100 nM; IC50 [5]: 32.4 µM; IC50 [6]: 23.6 µM |
| O=C(N[C@@H](Cc1ccc(Br)cc1)C(=O)NS(=O)(=O)c1ccccc1)c1cn(Cc2ccc(-c3ccc(Cl)cc3)cc2)c2ccccc12 | 0.91 | – |
| O=C(N[C@@H](Cc1ccccc1)C(=O)NS(=O)(=O)c1ccccc1)c1cn(Cc2ccc(-c3ccccc3)cc2)c2ccccc12 | > 10 | – |
| Cc1ccc(S(=O)(=O)NC(=O)[C@H](Cc2ccccc2)N2C(=O)/C(=C/c3ccc(-c4ccccc4)cc3)SC2=S)cc1 | 0.76 | Ki [2]: 440 nM; Ki [4]: 810 nM |
| COc1ccc(-c2ccc(Cn3cc(C(=O)N[C@@H](Cc4ccccc4)C(=O)NS(=O)(=O)c4ccccc4)c4ccccc43)cc2)cc1 | 1.3 | – |
| COc1ccc(-c2ccc(Cn3cc(C(=O)N[C@@H](Cc4ccc(OCc5ccccc5)cc4)C(=O)NS(=O)(=O)c4ccc(Cl)c([N+](=O)[O-])c4)c4ccccc43)cc2)cc1 | > 10 | – |
| O=C(N[C@@H](Cc1ccc(OCc2ccccc2)cc1)C(=O)NS(=O)(=O)c1ccc(Cl)c([N+](=O)[O-])c1)c1cn(Cc2ccc(-c3ccccc3)cc2)c2ccccc12 | > 10 | – |
| O=C(N[C@@H](Cc1ccc(OCc2ccc([N+](=O)[O-])cc2)cc1)C(=O)NS(=O)(=O)c1ccc(Cl)c([N+](=O)[O-])c1)c1cn(Cc2ccc(-c3ccc(Cl)cc3)cc2)c2ccccc12 | > 10 | – |
| COc1ccc(-c2ccc(Cn3cc(C(=O)N[C@@H](Cc4ccc(OCc5ccc([N+](=O)[O-])cc5)cc4)C(=O)NS(=O)(=O)c4ccc(Cl)c([N+](=O)[O-])c4)c4ccccc43)cc2)cc1 | > 10 | – |
| CCCOc1ccc(C[C@H](NC(=O)c2cn(Cc3ccc(-c4ccc(Cl)cc4)cc3)c3ccccc23)C(=O)NS(=O)(=O)c2ccc(Cl)c([N+](=O)[O-])c2)cc1 | > 10 | – |
| Cc1cc2c(C(C)C)c(O)c(O)c(C=O)c2c(O)c1-c1c(C)cc2c(C(C)C)c(O)c(O)c(C=O)c2c1O [GOSSYPOL] | – | IC50 [3]: 8.54 µM; IC50 [5]: 8.28 µM; IC50 [6]: 8.58 µM |
| CC(C)C[C@H](NC(=O)c1cn(Cc2ccc(-c3ccc(Cl)cc3)cc2)c2ccccc12)C(=O)NS(=O)(=O)c1ccccc1 | 0.92 | Ki [2]: 600 nM; Ki [4]: 6200 nM |
| COc1ccc(-c2ccc(Cn3cc(C(=O)N[C@@H](Cc4ccccc4)C(=O)O)c4ccccc43)cc2)cc1 | > 10 | – |

More lines, main results first:

| Ki [1] [µM] | Compound | other results |
| --- | --- | --- |
| > 10 | CCCOc1ccc(C[C@H](NC(=O)c2cn(Cc3ccc(-c4ccc(OC)cc4)cc3)c3ccccc23)C(=O)NS(=O)(=O)c2ccc(Cl)c([N+](=O)[O-])c2)cc1 | – |
| 2.6 | O=C(N[C@@H](Cc1ccccc1)C(=O)NS(=O)(=O)c1ccc(Cl)c([N+](=O)[O-])c1)c1cn(Cc2ccc(-c3ccccc3)cc2)c2ccccc12 | – |
| > 10 | COc1ccc(-c2ccc(Cn3cc(C(=O)N[C@@H](Cc4ccc(Br)cc4)C(=O)NS(=O)(=O)c4ccc(Cl)c([N+](=O)[O-])c4)c4ccccc43)cc2)cc1 | – |
| > 10 | O=C(N[C@@H](Cc1ccc(OCc2ccccc2)cc1)C(=O)NS(=O)(=O)c1ccc(Cl)c([N+](=O)[O-])c1)c1cn(Cc2ccc(-c3ccc(Cl)cc3)cc2)c2ccccc12 | – |
| > 10 | Cc1ccc(-c2ccc(Cn3cc(C(=O)N[C@@H](Cc4ccc(OCc5ccccc5)cc4)C(=O)NS(=O)(=O)c4ccc(Cl)c([N+](=O)[O-])c4)c4ccccc43)cc2)cc1 | – |
| > 10 | O=C(N[C@@H](Cc1ccc(Br)cc1)C(=O)NS(=O)(=O)c1ccc(Cl)c([N+](=O)[O-])c1)c1cn(Cc2ccc(-c3ccccc3)cc2)c2ccccc12 | – |
| 5.6 | CCCOc1ccc(C[C@H](NC(=O)c2cn(Cc3ccc(-c4ccccc4)cc3)c3ccccc23)C(=O)NS(=O)(=O)c2ccc(Cl)c([N+](=O)[O-])c2)cc1 | – |
| > 10 | COc1ccc(-c2ccc(Cn3cc(C(=O)N[C@@H](Cc4ccccc4)C(=O)NS(=O)(=O)c4ccc(Cl)c([N+](=O)[O-])c4)c4ccccc43)cc2)cc1 | – |
| > 10 | O=C(N[C@@H](Cc1ccc(Br)cc1)C(=O)NS(=O)(=O)c1ccc(Cl)c([N+](=O)[O-])c1)c1cn(Cc2ccc(-c3ccc(Cl)cc3)cc2)c2ccccc12 | – |
| 0.26 | O=C(N[C@@H](Cc1ccccc1)C(=O)NS(=O)(=O)c1ccc(Cl)c([N+](=O)[O-])c1)c1cn(Cc2ccc(-c3ccc(Cl)cc3)cc2)c2ccccc12 | Ki [2]: 72 nM; IC50 [3]: 29.5 µM; Ki [4]: 710 nM; IC50 [5]: 19.7 µM; IC50 [6]: 28.8 µM |
| 0.75 | COc1ccc(-c2ccc(Cn3cc(C(=O)N[C@@H](Cc4c[nH]c5ccccc45)C(=O)NS(=O)(=O)c4ccc(C)cc4)c4ccccc43)cc2)cc1 | Ki [2]: 530 nM; IC50 [3]: 11.5 µM; IC50 [5]: 10.1 µM; IC50 [6]: 18.3 µM |
| > 10 | COc1ccc(-c2ccc(Cn3cc(C(=O)N[C@@H](Cc4c[nH]c5ccccc45)C(=O)NS(=O)(=O)c4ccc(Cl)c([N+](=O)[O-])c4)c4ccccc43)cc2)cc1 | – |
| > 10 | O=C(N[C@@H](Cc1ccc(OCc2ccc([N+](=O)[O-])cc2)cc1)C(=O)NS(=O)(=O)c1ccc(Cl)c([N+](=O)[O-])c1)c1cn(Cc2ccc(-c3ccccc3)cc2)c2ccccc12 | – |
| > 10 | CCCOc1ccc(C[C@H](NC(=O)c2cn(Cc3ccc(-c4ccc(Cl)cc4)cc3)c3ccccc23)C(=O)NS(=O)(=O)c2ccc([N+](=O)[O-])cc2)cc1 | – |
